Publication PMC4077772, “Evolutionary Origin of GnIH and NPFF in Chordates: Insights from Novel Amphioxus RFamide Peptides” (PLoS ONE, 2014)
Where no end group is shown, it is not given here.

Columns and labels:
cAMP levels = conditions: ref [42]; cited from earlier work
Excerpt: (§1) We conducted in vitro assays to analyze whether the amphioxus PQRFa peptides have a biological activity.

CRE-luciferase activity = conditions: ref [41]; cited from earlier work
Excerpt: as §1

amphioxus PQRFa-R1 = assay: FSK-induced CRE-luciferase reporter assay, COS-7 cells transfected with amphioxus PQRFa-R1; assay type: cell-based, Branchiostoma japonicum; conditions: 6 h, COS-7 cells with PQRFa-R1, tested 10^−10−10^−6 M, dual-luciferase, fold activation over basal, mean ± SEM (n=4−6), Figure 6
Description: COS-7 cells were maintained in Dulbecco's modified Eagle's medium (DMEM; GIBCO/Invitrogen, Carlsbad, CA) supplemented with high glucose (4.5 g/L) containing 10% fetal bovine serum (GIBCO/Invitrogen) and 1% penicillin/streptomycin antibiotics (GIBCO/Invitrogen) in a humidified 5% CO2 atmosphere at 37°C. For luciferase assay, COS-7 cells were plated in 24-well plates and grown to 70–80% confluence for 24 h before transfection. Cells were then co-transfected with 200 ng of p3XFLAG-CMV-14 expression vector (Sigma-Aldrich Co., St Louis, MO) containing the amphioxus PQRFa-R1, PQRFa-R2, or empty vector, 200 ng of the pGL4.29[luc2P/CRE/Hygro] […] Cell extracts were prepared, and luciferase activity was measured using the dual-luciferase reporter assay system (Promega). […] Statistical significance was assessed by Prism statistical software (GraphPad Software Inc., La Jolla, CA). […]
Figure 5 Effect of amphioxus PQRFa peptides on forskolin (FSK)-induced or basal CRE-luciferase activity. […] The effect of amphioxus PQRFa peptides on basal CRE-luciferase activity was also tested in COS-7 cells transfected with amphioxus PQRFa-R1 or R2.The relative luciferase activity was measured from cell lysates and expressed as fold activation over the respective basal levels. […]

pituitary = conditions: lamprey GnIH; ref [24]; cited from earlier work
Excerpt: as §1

**Q.** Which “effect on cAMP levels” value (cAMP levels) does the source give for “FLFQPQRFamide [NPFF, pain modulatory neuropeptide with a C-terminal Pro-Gln-Arg-Phe-NH2 motif]” here?
**A.** inhibited cAMP levels

**Q.** What about the “effect on FSK-stimulated CRE-luciferase activity” value (CRE-luciferase activity) of the same substance?
**A.** inhibited FSK-stimulated CRE-luciferase activity

**Q.** With GRDQGWRPQRF-NH2 [PQRFa-3] as the substance, how does the “inhibition of FSK-induced CRE-luciferase activity (dose-dependent study)” value (amphioxus PQRFa-R1; 10^−6 M peptide) read?
**A.** inhibited FSK-induced CRE-luciferase activity

**Q.** And the “inhibition of FSK-induced CRE-luciferase activity (dose-dependent study)” value (amphioxus PQRFa-R1; 10^−7 M peptide)?
**A.** inhibited FSK-induced CRE-luciferase activity

**Q.** Which “effect on expression of GTHβ mRNA in the pituitary” value (pituitary) does the source give for “SEPFWHRTRPQRF-NH2 [Lamprey GnIH (LPXRFa peptide-2), lamprey GnIH ortholog]” here?
**A.** increased the expression of GTHβ mRNA
